# Patent US8287911B2, “Endotoxin adsorbent for the prevention and treatment of autoimmune diseases” (Chondrex Inc., priority 2006, dated 2012)
# “And” between values parts separate entries of the source, which are not always exact repeats. Equal values may be shown once. Read-outs that look alike come from different tables or passages of the source.
# Columns and labels:
# [1] = Endotoxin adsorption and elimination capacity (2), LPS-binding capacity from OD210 of supernatant; parameters: species or system E. coli O-111; details: for Endotoxin-Binding capacity (LP5 mg/g*): converted to dry weight of LPS per gram resin; for Endotoxin-Binding Capacity: per gram resin, method of Example 11
# Protocol: The LPS binding capacity of the endotoxin-adsorbent in a test tube was determined according to the method described in “endotoxin test procedures” in Japanese Pharmacopoeia, in addition to a simple assay method of LPS by measuring OD values, which was developed during this invention. The experimental procedures and results are shown in EXAMPLE 10 and 11 in detail.
# The endotoxin-binding capacity of polymixin B conjugates was also studied. LPS (Sigma L4130) was dissolved in pyrogen-free water at 0.2 mg/mL, and 4 mL of this solution was added to a test tube containing 20.6 mg of RPMB-1, and incubated at 37° C. with stirring. The supernatant was collected every 30 minutes by centrifugation and the OD values at 210 nm was determined. The OD210 value was dropped from 1 to 0.6 within the first 30 minutes of incubation and remained unchanged afterwards. […] Therefore, it was assumed that 20.6 mg of LPS adsorbent added in the first test tube was saturated with LPS. Accordingly, an LPS adsorption capacity of RPMB-1 was calculated based on the OD value changes of LPS solution. Since the LPS preparation used in this experiment was not pure and contaminated by DNA and proteins, it was assumed that the final OD value of 0.4 reflected the OD value of such contaminants. Based on this assumption, it was calculated that 1 g of RPMB is capable of binding approximately 25.9 mg of LPS (Sigma L4130) using the following formula: (0.8 mg×0.4/0.6)/0.0206=25.9 mg Since the endotoxin unit of this LPS preparation is 1.1×10^6 EU/mg, it was calculated that 1 g of RPMB-1 is capable of binding 29×10^6 EU of endotoxin.
# Polymixin B-conjugated resins prepared in Examples 1-7 were analyzed for their particle size distribution by the method described in Example 9 and assayed for the endotoxin-binding capacity by the method described in Example 11 to study the relationship between particle size and LPS-binding capacity. AffiPrep poplymixin B (BioRad, USA) was used as a reference.
# The endotoxin-binding capacity of individual batches of endotoxin-adsorbents prepared by conjugating with 3 million units of polymixin B was compared and expressed as endotoxin units (EU) per gram weight of resin as well as LPS weight per gram resin. The weight of LPS was obtained by converting the EU values based on the EU value per mg of LPS preparation (Sigma L4130, LPS preparation from E. coli O-111, B4, by trichloroacetic acid extraction) used for this experiment.
# [2] = Particle size distribution, microscopic method (Japanese Pharmacopoeia); format: physicochemical; details: for 50% Particle Size: resins of Examples 1-7 and reference, method of Example 9
# Protocol: The particle size of the endotoxin-adsorbent was determined based on the particle size distribution method. The particle distribution analysis was performed according to “The method for determining particle size distribution. Method 1: Microscopic method” in the second supplement of the general test procedures, section 65, Japanese Pharmacopoeia, 13th Issue. The 50% particle size (μm) was explained as the diameter of particles of the corresponding values of the accumulative volume of particles is 50%.
# The particle size distribution was measured according to “Measurement of Particle Size Distribution. Method 1: Microscopic method” in the second supplement of the general test procedures, Section 65, Japanese Pharmacopoeia, 13th Issue. The microscope and camera used for this experiment was Nikon ECLIPSE E600 and Victor KY-F55B, respectively. The collected data was analyzed using Nano Hunter NS2K-Pro. The 50% particle size of RPMB was 213 μm, and the content of small particles not more than 5 μm in a diameter was 0%.
# [3] = tested on: autoantibody mediated, LPS-induced arthritis; assay: Autoantibody mediated, LPS-induced arthritis model; format: in vivo, DBA/1JNCrj mice; details: experiment 2; for Severity of Arthritis (score) / Incidence of Arthritis: 10 mg/mouse oral; for Severity of Arthritis (score): average of 5 mice, maximum 16 per mouse; for Incidence of Arthritis: mice with arthritis/5; for effect on development of arthritis (in words): dose of 10 mg per mouse
# [4] = tested on: autoantibody mediated, LPS-induced arthritis; assay: Autoantibody mediated, LPS-induced arthritis model; format: in vivo, DBA/1JNCrj mice; details: experiment 1, day 7; for Severity of Arthritis (score): average of 5 mice, maximum 16 per mouse; for Incidence of Arthritis: mice with arthritis/5
# Source text: The therapeutic effect of the endotoxin-adsorbent on autoimmune diseases can be determined in the mouse arthritis model as described in our previous invention, JP-A 2006-151914. Briefly, arthritis can be induced in 100% of mice by IP injection of enough amounts of anti-type II collagen monoclonal antibody cocktail (Chondrex Inc., Redmond, Wash., USA) within 3 days (Terato K et al. Induction of arthritis with monoclonal antibodies to collagen. J. Immunol. 148:2103-2108, 1992). By reducing the dose of the monoclonal antibody cocktail to 2 mg, all mice remained normal without developing arthritis. However, oral administration of 3 mg of LPS on 3 consecutive days from day 0, day 1, day 2 […] into these mice induced clinically apparent arthritis, which reached the peak on day 6-7. Furthermore, one group of mice was co-administered with indomethasin and ovoinhibitor, a protease-inhibitor purified from egg white. The combination of indomethasin and ovoinhibitor was used to increase the mucosal permeability of gastro-intestinal mucosa. In these mice, the effect of LPS was more significant, and more severe arthritis was induced by oral administration of a same dose of LPS. Using this arthritis model induced by a combination of monoclonal antibody and LPS, the therapeutic effect of the endotoxin-adsorbent can be determined. The benefit of this model is multifold: time of experimentation is short compared with an authentic collagen-induced arthritis model, the standard deviation of severity of arthritis among individual mice is much less, and the effect of the LPS-adsorbent is clearly determined.
# DBA/1JNCrj mice (Japan Charles River) were divided into 5 groups (G1-G5, 5 mice per group). In order to increase the mucosal permeability, all mice received 40 μg of indomethasin (Sigma) and 2 mg of ovomucoid (Sigma) for 5 consecutive days from day −6 to −2 by the oral route. On day 0, all mice received an IV injection of 0.2 mL of arthritogenic monoclonal antibody cocktail (10 mg/mL). Endotoxin derived from E. coli O-111 (Phenol extracted LPS, Sigma) was dissolved in PBS at 7.5 mg/mL, and 0.2 mL of this solution was administered into G1-G4 mice by the oral route for 3 consecutive days from day 0 to 2. Endotoxin-adsorbent, RPMB-1, was suspended in distilled water at 100 mg/mL, and deaerated by a vacuum pump to keep the particles in uniform suspension by preventing the aggregation of the particles. The RPMB-1 suspension was administered to mice at doses of 0.125 mL (G2), 0.25 mL (G3) and 0.5 mL (G4) twice a day for 4 consecutive days from day 0 to 3 after LPS administration. G1 received 0.25 mL of water alone. Mice in G5, a positive control of arthritis, received IP injection of 0.1 mL of LPS solution (0.5 mg/mL in PBS) on day 3.
# Severity of arthritis was scored by 5 grades, 0: normal without any swelling, 1: clinically apparent swelling of one digit, 2: moderate redness and swelling of more than 2 digits or moderate redness and swelling of the entire paw, 3: severe redness and swelling of the entire paws, and 4: maximum inflamed limb with involvement of multiple joints. The sum of the arthritis score (maximum 16 per mouse) of individual animals was calculated. The effect of the endotoxin-adsorbent was calculated based on the average score of 5 mice using the following equation: Suppression of arthritis(%)=(1−Average score of test group/Average score of control group)×100
# Since the arthritis scores reached a maximum on day 7, the effect of the endotoxin-adsorbent was calculated using the scores on day 7. The suppression of arthritis by RPMB prepared in EXAMPLE 2 at 25 mg, 50 mg and 100 mg per mouse by oral administration is shown in Table 3.
# [5] = format: binding, E. coli O-111; details: for LPS Activity Remaining, 10 mm / LPS Activity Remaining, 20 mm / LPS Activity Remaining, Before: 1 mL LPS 5 μg/mL; for LPS Activity Remaining, 10 mm / LPS Activity Remaining, 20 mm: 37° C.; for LPS Activity Remaining, 10 mm: 10 minutes after adding resin; for LPS Activity Remaining, 20 mm: 20 minutes after adding resin; for LPS Activity Remaining, Before: supernatant before adding resin (baseline)
# Protocol: Endotoxin was assayed by an end point colorimetric assay method using Endospecy-ES24S kit (Seikagaku Kogyo, Japan). Lipopolysaccharide (LPS) from E. coli O-111 (Sigma L4130) was dissolved in pyrogen-free water at 5 μg/mL. One mL of this LPS solution was mixed with 50 μg and 100 μg of RPMB-1, and 100 μg of polymixin B-unconjugated resin (control) and incubated at 37° C. with stirring. Endotoxin levels were determined in the supernatant before, 10 and 20 minutes after adding the resins.
Substance,Endotoxin-Binding capacity (LP5 mg/g*) [1],Endotoxin-Binding Capacity [1],50% Particle Size [2],Severity of Arthritis (score) [3],Incidence of Arthritis [3],effect on development of arthritis (in words) [3],further results
Weakly Acidic Cation-Exchange Resin-Polymixin B Conjugate [1/300],6.7 mg/g,7.7 × 10^6 EU/g,400 μm,–,–,–,–
Epoxyacryl Resin-Polymixin B Conjugate [RPMB-2],105 mg/g,120 × 10^6 EU/g,32 μm,0 ± 0 score,0/5,suppressed the development of arthritis almost completely,–
Weakly Acidic Cation-Exchange Resin-Polymixin B Conjugate [4M/300],30 mg/g,29.5 × 10^6 EU/g,26 μm,0.8 ± 1.8 score,1/5,suppressed the development of arthritis almost completely,–
Weakly Acidic Cation-Exchange Resin-Polymixin B Conjugate [1M/300],120 mg/g,136.3 × 10^6 EU/g,29 μm,0 ± 0 score,0/5,suppressed the development of arthritis almost completely,–
Weakly Acidic Cation-Exchange Resin-Polymixin B Conjugate [4/300],6.3 mg/g,7.2 × 10^6 EU/g,400 μm,–,–,–,–
Epoxyacryl Resin-Polymixin B Conjugate [RPMB],17.5 mg/g,20 × 10^6 EU/g,213 μm,–,–,–,"LPS bound by 1 g of resin ([1]; per 1 g resin, calculated from OD value changes, (0.8 mg×0.4/0.6)/0.0206): approximately 25.9 mg; Distribution of Particle Size: 10% Diameter ([2]; 1006 particles analyzed): 160 (μm); Distribution of Particle Size: 90% Diameter ([2]; 1006 particles analyzed): 266 (μm); Distribution of Particle Size: Average Diameter ([2]; 1006 particles analyzed): 197 (μm); content of small particles not more than 5 μm in a diameter ([2]; 1006 particles analyzed): 0%"
Epoxyacryl Resin-Polymixin B Conjugate [RPMB-1],26.5 mg/g,29 × 10^6 EU/g,32 μm,–,–,–,"Severity of Arthritis (score) ([4]; 25 mg/mouse oral): 9 score and 6.4 ± 1.8 score; Incidence of Arthritis ([4]; 25 mg/mouse oral): 4 out of 5 and 4/5; Severity of Arthritis (score) ([4]; 50 mg/mouse oral): 2 score and 2 ± 2.8 score; Incidence of Arthritis ([4]; 50 mg/mouse oral): 2 out of 5 and 2/5; Severity of Arthritis (score) ([4]; 100 mg/mouse oral): 0 ± 0 score; Incidence of Arthritis ([4]; 100 mg/mouse oral): None of the five mice and 0/5; OD value of supernatant after adding fresh resin ([1]; 20.5 mg fresh resin added to the supernatant, reduced from 0.6): 0.4; OD210 value of supernatant ([1]; 20.6 mg resin in 4 mL LPS 0.2 mg/mL, 37° C., within first 30 minutes, dropped from 1): 0.6; endotoxin bound by 1 g of resin ([1]; per 1 g resin, calculated with 1.1×10^6 EU/mg LPS): 29×10^6 EU; LPS Activity Remaining, 10 mm ([5]; resin amount 50 μg): 2403 EU/mL; LPS Activity Remaining, 20 mm ([5]; resin amount 50 μg): 1207 EU/mL; LPS Activity Remaining, Before ([5]; resin amount 50 μg): 5632 EU/mL; LPS Activity Remaining, 10 mm ([5]; resin amount 100 μg): 1004 EU/mL; LPS Activity Remaining, 20 mm ([5]; resin amount 100 μg): 170 EU/mL; LPS Activity Remaining, Before ([5]; resin amount 100 μg): 5526 EU/mL; LPS adsorption (in words) ([5]; versus polymixin B-unconjugated control resin): specifically adsorbed"
